Reference: patent US12583824B2 (Genzyme Corporation, priority 2019, dated 2026)

Target: T1, CFTR in primary human bronchial epithelial cells from a ΔF508 homozygous CF donor (CF-HBE cells) (Homo sapiens, UniProt P13569, DEL508-508)
T1 construct: Primary human bronchial epithelial cells from a ΔF508 homozygous CF donor; host or cells: primary human bronchial epithelial cells (CF-HBE), ΔF508 homozygous donor
Assay: TECC24 recording analysis of CFTR-mediated transepithelial chloride transport (AUC fold over DMSO)
Assay type: cell-based
Conditions: 3 μM test agent, CF-HBE cells cultured 48 hours at 36.5° C.; ratio of test agent AUC of forskolin-stimulated IEQ divided by vehicle (DMSO) AUC
Method: Example 31: TECC24 AUC Fold Over DMSO @ 3 μM
The effects of a test agent on CFTR-mediated transepithelial chloride transport was measured using TECC24 recording analysis. Test agents were solubilized in DMSO. Solubilized test agents were mixed with incubation medium containing DMEM/F12, Ultroser G (2%; Crescent Chemical, catalog #67042), Hyclone Fetal Clone II (2%; GE Healthcare, catalog #SH30066.02), bovine brain extract (0.25%; Lonza, catalog #CC-4098), insulin (2.5 μg/mL), IL-13 (10 ng/mL), hydrocortisone (20 nM), transferrin (2.5 μg/mL), triiodothyronine (500 nM), ethanolamine (250 nM), epinephrine (1.5 μM), phosphoethanolamine (250 nM), and retinoic acid (10 nM). Primary human bronchial epithelial cells from a ΔF508 homozygous CF donor (CF-HBE cells; from University of North Carolina Cystic Fibrosis Tissue Procurement Center), grown on Transwell HTS 24-well cell culture inserts (Costar, catalog #3378), were exposed to test agents or controls dissolved in incubation medium. The CF-HBE cells were cultured at 36.5° C. for 48 hours before TECC24 recordings were performed in the presence or absence of test agent, a positive control or vehicle (DMSO).
Following incubation, the transwell cell culture inserts containing the test agent or control-treated CF-HBE cells were loaded onto a TECC24 apparatus (TECC v7 or MTECC v2; EP Design) to record the transepithelial voltage (VT) and resistance (TEER) using 4 AgCl electrodes per well configured in current-clamp mode. The apical and basolateral bath solutions both contained (in mM) 140 NaCl, 5 KCl, 2 CaCl2), 1 MgCl2, 10 Hepes, and 10 glucose (adjusted to pH 7.4 with NaOH). To inhibit basal Na+ absorption, the ENaC inhibitor benzamil (10 μM) was added to the bath. Then, the adenylate cyclase activator, forskolin (10 μM), was added to the bath to activate CFTR. The forskolin-stimulated Cl-transport was halted by addition of bumetanide (20 μM), an inhibitor of the basolateral chloride co-transporter NKCC1, to the bath to confirm that the detected signal was chloride dependent. VT and TEER recordings were digitally acquired at routine intervals using TECC or MTECC software (EP Design). VT and TEER were transformed into equivalent transepithelial Cl-current (IEQ), and the Area Under the Curve (AUC) of the IEQ time course between forskolin and bumetanide addition is generated using Excel (Microsoft). Efficacy is expressed as the ratio of the test agent AUC divided by vehicle AUC. EC50s based on AUC are generated using the non-linear regression log(agonist) vs. response function in Prism software (GraphPad) with Hill Slope fixed=1.
If a test agent increased the AUC of the forskolin-stimulated IEQ relative to vehicle in CF-HBE cells, and this increase was inhibited by bumetanide, then the test agent was considered a CFTR corrector.

T1 sequence (P13569 with tags, fused parts or gaps DEL508-508): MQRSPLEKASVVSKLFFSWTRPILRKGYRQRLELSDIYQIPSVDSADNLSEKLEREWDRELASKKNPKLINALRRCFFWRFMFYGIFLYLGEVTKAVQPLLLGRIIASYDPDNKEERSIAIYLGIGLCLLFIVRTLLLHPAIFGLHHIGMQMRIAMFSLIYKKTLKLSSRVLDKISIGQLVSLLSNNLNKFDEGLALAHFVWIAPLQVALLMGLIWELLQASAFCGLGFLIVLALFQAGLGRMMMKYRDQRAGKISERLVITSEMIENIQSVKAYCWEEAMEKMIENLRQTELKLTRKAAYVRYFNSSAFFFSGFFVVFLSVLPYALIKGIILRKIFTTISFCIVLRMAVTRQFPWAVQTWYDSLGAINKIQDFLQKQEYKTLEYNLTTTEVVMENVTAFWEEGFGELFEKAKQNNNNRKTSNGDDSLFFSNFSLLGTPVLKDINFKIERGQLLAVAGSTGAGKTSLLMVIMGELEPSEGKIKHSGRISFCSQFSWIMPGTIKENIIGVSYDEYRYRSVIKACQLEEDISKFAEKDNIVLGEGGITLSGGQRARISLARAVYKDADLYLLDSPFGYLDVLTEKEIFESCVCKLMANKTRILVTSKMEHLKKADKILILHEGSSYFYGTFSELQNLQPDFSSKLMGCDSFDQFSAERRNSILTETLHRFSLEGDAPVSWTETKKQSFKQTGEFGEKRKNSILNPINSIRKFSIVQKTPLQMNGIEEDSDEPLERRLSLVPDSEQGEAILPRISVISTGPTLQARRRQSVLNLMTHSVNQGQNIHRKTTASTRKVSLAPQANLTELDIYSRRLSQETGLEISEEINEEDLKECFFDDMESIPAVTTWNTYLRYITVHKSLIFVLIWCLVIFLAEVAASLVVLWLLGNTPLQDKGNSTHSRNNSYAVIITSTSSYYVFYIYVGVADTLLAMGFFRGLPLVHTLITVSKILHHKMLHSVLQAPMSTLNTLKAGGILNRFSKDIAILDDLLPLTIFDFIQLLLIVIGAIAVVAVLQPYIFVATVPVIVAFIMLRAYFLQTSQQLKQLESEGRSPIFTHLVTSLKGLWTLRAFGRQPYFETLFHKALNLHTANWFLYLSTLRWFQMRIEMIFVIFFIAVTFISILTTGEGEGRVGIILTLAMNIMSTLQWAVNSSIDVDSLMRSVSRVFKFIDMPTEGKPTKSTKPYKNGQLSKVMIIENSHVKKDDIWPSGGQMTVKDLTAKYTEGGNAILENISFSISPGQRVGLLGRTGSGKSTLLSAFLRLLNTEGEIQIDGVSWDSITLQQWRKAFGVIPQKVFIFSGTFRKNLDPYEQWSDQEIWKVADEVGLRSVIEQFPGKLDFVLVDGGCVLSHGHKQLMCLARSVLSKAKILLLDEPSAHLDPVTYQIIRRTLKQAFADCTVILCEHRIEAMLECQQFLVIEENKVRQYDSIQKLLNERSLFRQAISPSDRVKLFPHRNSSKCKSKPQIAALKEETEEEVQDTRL

| Structure (SMILES) | TECC24 AUC vs. DMSO (@3 μM) |
| --- | --- |
| CC(C)c1ccccc1-c1nc(NS(=O)(=O)c2ccccc2)cnc1-n1ccc(OCC(F)(F)C(C)(C)C)n1 [Example 5, N-(5-(3-(2,2-difluoro-3,3-dimethylbutoxy)-1H-pyrazol-1-yl)-6-(2-isopropylphenyl)pyrazin-2-yl)benzenesulfonamide] | A (“A “refers to AUC > 5) |
| CC(C)c1ccccc1-c1nc(NS(=O)(=O)c2ccccc2)cnc1-c1cccc([C@@H]2CC[C@H](OC(F)(F)F)C2)c1 (single isomer, unassigned) [Example 9a] | C (“C” refers to AUC < 2) |
| Cc1cccc(C)c1-c1nc(NS(=O)(=O)c2cccc(NC3CC(C)(O)C3)c2)ccc1-c1cccc(OCC(C)(C)C(F)(F)F)c1 (stereo not shown) [Example 20] | A (“A “refers to AUC > 5) |
| O=S(=O)(Nc1ncc(-c2cccc([C@@H]3CC[C@@H](OC(F)(F)F)C3)c2)c(-c2ccccc2C(F)(F)F)n1)c1ccccc1 (single isomer, unassigned) [Example 28b] | A (“A “refers to AUC > 5) |
| CC(C)(C)COc1cc(-c2cnc(NS(=O)(=O)c3cccc(NS(C)(=O)=O)c3)nc2-c2ccc(C(F)(F)F)cc2)ccc1Cl [Example 24, N-(5-(4-chloro-3-(neopentyloxy)phenyl)-4-(4-(trifluoromethyl)phenyl)pyrimidin-2-yl)-3-(methylsulfonamido)benzenesulfonamide] | C (“C” refers to AUC < 2) |
| CC(C)(C)COc1cc(-c2cnc(NS(=O)(=O)c3cccc(Cl)n3)nc2-c2ccc(C(F)(F)F)cc2)ccc1Cl [Example 26, 5-(4-chloro-3-(neopentyloxy)phenyl)-2-(((6-chloropyridin-2-yl)sulfonyl)-12-azaneyl)-4-(4-(trifluoromethyl)phenyl)pyrimidine] | C (“C” refers to AUC < 2) |
| Nc1cccc(S(=O)(=O)Nc2ncc(-c3cccc([C@H]4CC[C@@H](OC(F)(F)F)C4)c3)c(-c3ccccc3C(F)(F)F)n2)c1 (single isomer, unassigned) [Example 29a] | B (“B” refers to AUC between 2-5) |
| CC(C)(C)COc1cc(-c2cnc(NS(=O)(=O)c3ccccc3)nc2-c2ccc(C(F)(F)F)cc2)ccc1Cl [Example 22, 5-(4-chloro-3-(neopentyloxy)phenyl)-2-((phenylsulfonyl)-12-azaneyl)-4-(4-(trifluoromethyl)phenyl)pyrimidine] | C (“C” refers to AUC < 2) |
| Cc1cccc(C)c1-c1nc(NS(=O)(=O)c2ccccc2)cnc1-c1cccc([C@@H]2CC[C@H](OC(F)(F)F)C2)c1 (single isomer, unassigned) [Example 6a] | B (“B” refers to AUC between 2-5) |
| Cc1cccc(C)c1-c1nc(NS(=O)(=O)c2cn(C)nc2C)cnc1-c1cccc([C@@H]2CC[C@H](OC(F)(F)F)C2)c1 (single isomer, unassigned) [Example 7a] | C (“C” refers to AUC < 2) |
| CC(C)(C)COc1cc(-c2ccc(NS(=O)(=O)c3cccc(Cl)n3)nc2-c2ccc(C(F)(F)F)cc2)ccc1Cl [Example 12, 6-chloro-N-(5-(4-chloro-3-(neopentyloxy)phenyl)-6-(4-(trifluoromethyl)phenyl)pyridin-2-yl)pyridine-2-sulfonamide] | B (“B” refers to AUC between 2-5) |
| CC(C)(C)COc1cc(-c2ccc(NS(=O)(=O)c3cccc(N)c3)nc2-c2ccc(C(F)(F)F)cc2)ccc1Cl [Example 17, 3-amino-N-(5-(4-chloro-3-(neopentyloxy)phenyl)-6-(4-(trifluoromethyl)phenyl)pyridin-2-yl)benzenesulfonamide] | C (“C” refers to AUC < 2) |
| CC(C)(C)COc1cc(-c2ccc(NS(=O)(=O)c3ccccc3)nc2-c2ccc(C(F)(F)F)cc2)ccc1Cl [Example 14, N-(5-(4-chloro-3-(neopentyloxy)phenyl)-6-(4-(trifluoromethyl)phenyl)pyridin-2-yl)benzenesulfonamide] | C (“C” refers to AUC < 2) |
| CC(C)n1nccc1-c1nc(NS(=O)(=O)c2ccccc2)cnc1-c1cccc([C@@H]2CC[C@@H](OC(F)(F)F)C2)c1 (single isomer, unassigned) [Example 10b] | C (“C” refers to AUC < 2) |
| Nc1cccc(S(=O)(=O)Nc2ncc(-c3cccc([C@H]4CC[C@H](OC(F)(F)F)C4)c3)c(-c3ccccc3C(F)(F)F)n2)c1 (single isomer, unassigned) [Example 29b] | B (“B” refers to AUC between 2-5) |
| Cc1nn(C)cc1S(=O)(=O)Nc1cnc(-c2cccc([C@@H]3CC[C@@H](OC(F)(F)F)C3)c2)c(-c2ccccc2C(C)C)n1 (single isomer, unassigned) [Example 8b] | B (“B” refers to AUC between 2-5) |
| CC(C)n1nccc1-c1nc(NS(=O)(=O)c2ccccc2)cnc1-c1cccc([C@@H]2CCC(OC(F)(F)F)C2)c1 (single isomer, unassigned) [Example 10a] | C (“C” refers to AUC < 2) |
| Nc1cccc(S(=O)(=O)Nc2ncc(-c3cccc([C@@H]4CC[C@H](OC(F)(F)F)C4)c3)c(-c3ccccc3C(F)(F)F)n2)c1 (single isomer, unassigned) [Example 30a] | B (“B” refers to AUC between 2-5) |
| CC(C)c1ccccc1-c1nc(NS(=O)(=O)c2ccccc2)cnc1-c1cccc([C@@H]2CC[C@@H](OC(F)(F)F)C2)c1 (single isomer, unassigned) [Example 9b] | C (“C” refers to AUC < 2) |
| O=S(=O)(Nc1ncc(-c2cccc([C@H]3CC[C@H](OC(F)(F)F)C3)c2)c(-c2ccccc2C(F)(F)F)n1)c1ccccc1 (single isomer, unassigned) [Example 27a] | B (“B” refers to AUC between 2-5) |
| Cc1nn(C)cc1S(=O)(=O)Nc1cnc(-c2cccc([C@@H]3CC[C@H](OC(F)(F)F)C3)c2)c(-c2ccccc2C(C)C)n1 (single isomer, unassigned) [Example 8a] | C (“C” refers to AUC < 2) |
| O=S(=O)(Nc1ncc(-c2cccc([C@H]3CC[C@@H](OC(F)(F)F)C3)c2)c(-c2ccccc2C(F)(F)F)n1)c1ccccc1 (single isomer, unassigned) [Example 27b] | A (“A “refers to AUC > 5) |
| Cc1cccc(C)c1-c1nc(NS(=O)(=O)c2ccccc2)cnc1-c1cccc(OCCC(C)(C)C)c1 [Example 3, N-(5-(3-(3,3-dimethylbutoxy)phenyl)-6-(2,6-dimethylphenyl)pyrazin-2-yl)benzenesulfonamide] | A (“A “refers to AUC > 5) |
| CC(C)(C)COc1cc(-c2ccc(NS(=O)(=O)c3cccc(N)n3)nc2-c2ccc(C(F)(F)F)cc2)ccc1Cl [Example 13, 6-amino-N-(5-(4-chloro-3-(neopentyloxy)phenyl)-6-(4-(trifluoromethyl)phenyl)pyridin-2-yl)pyridine-2-sulfonamide] | C (“C” refers to AUC < 2) |
| Cc1cccc(C)c1-c1nc(NS(=O)(=O)c2ccccc2)cnc1-c1ccc(F)c(OCC(C)(C)C(F)(F)F)c1 [Example 4, N-(6-(2,6-dimethylphenyl)-5-(4-fluoro-3-(3,3,3-trifluoro-2,2-dimethylpropoxy)phenyl)pyrazin-2-yl)benzenesulfonamide] | A (“A “refers to AUC > 5) |
| Nc1cccc(S(=O)(=O)Nc2ncc(-c3cccc([C@@H]4CC[C@@H](OC(F)(F)F)C4)c3)c(-c3ccccc3C(F)(F)F)n2)c1 (single isomer, unassigned) [Example 30b] | A (“A “refers to AUC > 5) |
| CC(C)c1ccccc1-c1nc(NS(=O)(=O)c2ccccc2)cnc1-c1cccc(OCC(F)(F)C(C)(C)C)c1 [Example 1, N-(5-(3-(2,2-difluoro-3,3-dimethylbutoxy)phenyl)-6-(2-isopropylphenyl)pyrazin-2-yl)benzenesulfonamide] | A (“A “refers to AUC > 5) |
| Cc1cccc(C)c1-c1nc(NS(=O)(=O)c2ccccc2)ccc1-c1cccc(OCCC(C)(C)C)c1 [Example 15, N-(5-(3-(3,3-dimethylbutoxy)phenyl)-6-(2,6-dimethylphenyl)pyridin-2-yl)benzenesulfonamide] | A (“A “refers to AUC > 5) |
